The text below walks through data of patent publication US20070270436A1, “NOVEL AMINO- AND IMINO-ALKYLPIPERAZINES” (Recordati Ireland Limited, priority 2006, published 2007).

Broadly, the Ki is the dissociation constant of the complex between target and ligand, obtained from inhibition or displacement. The inhibition is the percentage by which the read-out fell short of the control.

Experiment [1] concerns the target T1, human 5HT1A-serotonergic receptor (Homo sapiens, UniProt P08908).
T1 construct: expressed in transfected cells; host or cells: HeLa (human), stably transfected; membranes
T1 sequence (P08908 1-422): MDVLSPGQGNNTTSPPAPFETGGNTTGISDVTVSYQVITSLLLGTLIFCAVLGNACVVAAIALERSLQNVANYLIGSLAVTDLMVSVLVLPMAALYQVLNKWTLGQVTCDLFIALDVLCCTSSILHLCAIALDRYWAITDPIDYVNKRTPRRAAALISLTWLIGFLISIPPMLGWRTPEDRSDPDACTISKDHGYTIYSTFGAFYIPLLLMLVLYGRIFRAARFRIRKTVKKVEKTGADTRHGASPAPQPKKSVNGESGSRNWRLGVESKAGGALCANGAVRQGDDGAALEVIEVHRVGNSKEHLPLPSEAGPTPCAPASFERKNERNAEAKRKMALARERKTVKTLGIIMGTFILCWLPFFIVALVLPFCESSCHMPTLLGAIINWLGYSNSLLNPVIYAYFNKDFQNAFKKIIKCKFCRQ
Nature of the experiment: Radioligand binding to recombinant 5-HT1A receptor ([3H]8-OH-DPAT, HeLa cell membranes). Conditions: 1 nM [3H]8-OH-DPAT; Ki from IC50 by the Cheng equation; read-out: Ki (nM), binding affinity for 5HT1A receptor. A digest of the protocol: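 Membranes from HeLa cells stably expressing human 5-HT1A incubated 30 min at 30 °C with 1 nM [3H]8-OH-DPAT in 50 mM Tris pH 7.4, 2.5 mM MgCl2, 10 μM pargyline; non-specific binding with 10 μM 5-HT. Filtration read-out; IC50 by curve fitting, converted to Ki via Cheng-Prusoff.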

Experiment [2] concerns the target T2, 5-HT1A receptors (Rattus norvegicus, UniProt P19327).
T2 construct: from tissue; host or cells: living male Sprague-Dawley rats (whole animal, behavioural read-out)
T2 sequence (P19327 1-422): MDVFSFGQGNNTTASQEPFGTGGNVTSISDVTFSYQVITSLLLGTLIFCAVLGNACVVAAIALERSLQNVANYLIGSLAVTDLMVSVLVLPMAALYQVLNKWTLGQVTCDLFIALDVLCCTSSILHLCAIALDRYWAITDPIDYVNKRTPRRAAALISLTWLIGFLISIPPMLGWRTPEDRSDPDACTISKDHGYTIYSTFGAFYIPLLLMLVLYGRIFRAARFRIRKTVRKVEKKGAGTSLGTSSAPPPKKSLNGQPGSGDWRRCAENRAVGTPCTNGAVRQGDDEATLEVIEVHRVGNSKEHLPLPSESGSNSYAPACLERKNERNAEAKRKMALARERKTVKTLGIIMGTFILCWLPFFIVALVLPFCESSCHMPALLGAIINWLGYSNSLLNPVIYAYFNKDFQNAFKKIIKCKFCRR
The experiment is described as follows: Inhibition of serotonergic syndrome (forepaw treading) induced by 8-OH-DPAT in rats (post-synaptic antagonism). To be noted: for inhibition at 10 mg/kg: rat. The experiment is classed as in vivo.

Like-named read-outs stand apart in the source and are kept apart here.

For the compound `COc1ccccc1N1CCN(CC[C@@H](c2ccccc2F)[C@H](NC(=S)N(C)C)C2CCCCC2)CC1` (racemic) [Example 24, 3-{(RS,SR)-1-Cyclohexyl-2-(2-fluorophenyl)-4-[4-(2-methoxyphenyl)-piperazin-1-yl]butyl}-1,1-dimethylthiourea], the Ki in experiment [1] came to 1.23 nM. Further, the “ED50 (dose inhibiting by 50% the forepaw treading) (95% CL), 1 hour” value in experiment [2] (1 hour after oral administration) is listed as 2.86 (2.12-3.8) mg/kg p.o. For the same compound, the “ED50 (dose inhibiting by 50% the forepaw treading) (95% CL), 4 hours” value in experiment [2] (4 hours after oral administration) is recorded as 3.67 (2.81-4.93) mg/kg p.o. Also, the inhibition at 10 mg/kg was 100% in experiment [2] (10 mg/kg p.o., 1 h before 8-OH-DPAT 1 mg/kg s.c., read-out: % Inhibition of forepaw treading, 1 h) and 90% in experiment [2] (10 mg/kg p.o., 4 h before 8-OH-DPAT 1 mg/kg s.c., read-out: % Inhibition of forepaw treading, 4 h).

Regarding `COc1ccccc1N1CCN(CCC(c2ccccc2F)C(C2CCCCC2)N(C)C(C)=O)CC1` (racemic) [Example 16, (RS,SR)- and (RS,RS)-N-{-1-Cyclohexyl-2-(2-fluorophenyl)-4-[4-(2-methoxyphenyl)piperazin-1-yl]butyl}-N-methylacetamide], the Ki in experiment [1] was determined as 0.86 nM. The “% Inhibition of forepaw treading, 1 h” value in experiment [2] (10 mg/kg p.o., 1 h before 8-OH-DPAT 1 mg/kg s.c.) came out at 80%. Moreover, in experiment [2] (10 mg/kg p.o., 4 h before 8-OH-DPAT 1 mg/kg s.c.), the “% Inhibition of forepaw treading, 4 h” value is given as 69%.
